Source: publication PMC8574161 (Journal of chemical information and modeling, 2021)
Several values for one entry are separate records, joined by “and”; a condition that tells them apart may be missing. Identical values can stand only once. Counter-ions that a name gives are not always drawn. Like-named read-outs stand apart in the source and are kept apart here.

Columns and labels:
in vitro = settings: human
SARS-CoV-2 [1] = assay: microbe, parasite or virus in culture
SARS-CoV-2 [2] = settings: Vero cells; cited from earlier work
SARS-CoV-2 [3] = settings: compared with CC50
SARS-CoV-2 [4] = settings: Calu-3 cells; cited from earlier work
SARS-CoV-2 [5] = assay: Vero 76 reduction of virus-induced cytopathic effect; format: cell-based; settings: Severe acute respiratory syndrome coronavirus 2, Vero 76, Vero 76
[6] = test system: SARS-CoV-2 (isolate USA WA1/2020); assay: microbe, parasite or virus in culture; format: cell-based; settings: Severe acute respiratory syndrome coronavirus 2, Calu-3, 48 h
Calu3 toxicity = format: cell-based; settings: human, Calu3 cells infected with SARS-CoV-2
[7] = target: SARS-CoV-2 Spike RBD protein (Severe acute respiratory syndrome coronavirus 2, UniProt P0DTC2); assay: Microscale thermophoresis binding to Spike RBD; settings: MST, 5 nM labeled Spike RBD, 23°C, quadruplicate
SARS-CoV-2 [8] = settings: Vero E6 cells; cited from earlier work
[9] = Vero 76 cytotoxicity in uninfected toxicity cultures; settings: African green monkey, CC50, Vero 76
[10] = Severe acute respiratory syndrome coronavirus 2, Caco-2, 72 h
[11] = Neutral Red (Cytopathic effect/Toxicity)
[12] = Visual (Cytopathic effect/Toxicity)

In the case of `C=C[C@]1(C)C[C@@H](OC(=O)CSCCN(CC)CC)[C@]2(C)[C@H](C)CC[C@]3(CCC(=O)[C@H]32)[C@@H](C)[C@@H]1O` [Tiamulin fumarate], the CC50 at 3 days (in vitro) is reported as over 100 µM and the EC90 (SARS-CoV-2 [1]; [10]) is reported as 65 µM.
In the case of `Cc1cn(-c2cc(NC(=O)c3ccc(C)c(Nc4nccc(-c5cccnc5)n4)c3)cc(C(F)(F)F)c2)cn1` [Nilotinib], the potency (SARS-CoV-2 [2]) is given as “sub-micromolar”.
In the case of `COc1cc2c(cc1OC)C1CC(=O)C(CC(C)C)CN1CC2` (centres unmarked) [Tetrabenazine], the “activity against SARS-CoV-2 in Caco-2 cells (in words)” value (SARS-CoV-2 [3]) is reported as “inactive”, the CC50 at 3 days (in vitro) is reported as over 100 µM and the EC90 (SARS-CoV-2 [1]; Severe acute respiratory syndrome coronavirus 2, Caco-2) is reported as over 100 µM.
With `CCCC1O[C@@H]2C[C@H]3[C@@H]4CCC5=CC(=O)C=C[C@]5(C)[C@H]4[C@@H](O)C[C@]3(C)[C@]2(C(=O)CO)O1` (some centres unmarked) [Budesonide] the “activity against SARS-CoV-2 in Caco-2 cells (in words)” value (SARS-CoV-2 [3]) was “no activity”, the CC50 at 3 days (in vitro) was 10 µM and the EC90 (SARS-CoV-2 [1]; [10]) was over 10 µM.
In the case of `C[C@H]1[C@H](OC(=O)CCC(=O)O)O[C@@H]2O[C@@]3(C)CC[C@H]4[C@H](C)CC[C@@H]1[C@@]24OO3` [Artesunate], the IC50 (SARS-CoV-2 [4]) is given as 1760 nM.
`CCCCN(CCCC)CC(O)c1cc(Cl)cc2c1-c1ccc(Cl)cc1/C2=C/c1ccc(Cl)cc1` (centres unmarked) [Lumefantrine] gave an EC50 (SARS-CoV-2 [5]; [11]) of 54 µM, an EC50 (SARS-CoV-2 [5]; [12]) of over 60 µM and an IC50 [6] of over 20 µM. For the same compound, the CC50 at 48 h (Calu3 toxicity) was over 20 µM, the Kd [7] was 259 nM and ~250 nM and the EC50 (SARS-CoV-2 [8]) was 23.2 µM. It also gave a CC50 at 3 days (in vitro) of 10 µM, an EC90 (SARS-CoV-2 [1]; [10]) of 10 µM and a CC50 [9, 11] of 177 µM. It also gave a CC50 [9, 12] of over 60 µM.
